Assay results from PubChem BioAssay AID1996.
Values after ≈ are worked out from the molar mass of the structure shown.

Settings: buffer; pH 7.4; 200.0 µM

| Compound | solubility kinetic [µg/mL] |
| --- | --- |
| O=C(CN1CCN(Cc2ccc(F)cc2)CC1)Nc1ccccc1F | > 51.8 |
| O=C(COC(=O)C1CCC(=O)N1)Nc1cccc([N+](=O)[O-])c1 (centres undefined) | > 46.1 |
| Cc1cc(C)cc(NC(=O)CN2C(=O)c3ccccc3C2=O)c1 | 0.5 (≈ 1.62 µM) |
| O=C(COC(=O)c1cccnc1)NC1CCCc2ccccc21 (centres undefined) | 39.3 (≈ 127 µM) |
| Cc1cccc(NC(=S)N(C)C2CCCCC2)c1 | 30.1 (≈ 115 µM) |
| COc1ccccc1NC(=O)Nc1ccc(CC#N)cc1 | 1.4 (≈ 4.98 µM) |
| Brc1cc(-c2ccccc2)nc(-c2ccccc2)n1 | < 0.3 |
| C/C(=C\c1ccc(Br)cc1)C(=O)c1c(C)cc(C)[nH]c1=O | > 51.9 |
| Cc1ccc(NS(=O)(=O)c2ccc(F)cc2)nc1 | 34.4 (≈ 129 µM) |
| NC(=O)c1ccccc1NC(=O)COC(=O)CSCc1cccc(Cl)c1 | 10.8 (≈ 27.5 µM) |
| CCCN(Cc1ccccc1)C(=S)Nc1cccc(C)c1C | < 0.3 |
| Cc1ccccc1NC(=S)Nc1ccccc1 | 18.8 (≈ 77.6 µM) |
| O=C(CCc1ccncc1)N1CCCC(Nc2ccc(F)c(F)c2)C1 (centres undefined) | 43.9 (≈ 127 µM) |
| Cc1nc(NS(=O)(=O)c2cccc([N+](=O)[O-])c2)sc1C(C)(C)C | 5.4 (≈ 15.2 µM) |
| Clc1ccc2nc(-c3ccccc3)cn2c1 | 1.4 (≈ 6.12 µM) |
| COCCCNC(=O)c1cc(-c2cccnc2)nc2ccccc12 | > 48.2 |
| O=S(=O)(Nc1ccc(-c2nc3cccnc3s2)cc1)c1ccccc1F | 0.8 (≈ 2.08 µM) |
| O=S(=O)(NCC1CCCO1)c1ccccc1 (centres undefined) | > 36.2 |
| Cc1cc(-c2ccc(Cl)cc2Cl)c(C#N)c(=O)[nH]1 | 3.4 (≈ 12.2 µM) |
| Cc1n[nH]c(=S)n1-c1ccc(Cl)cc1 | > 33.9 |

| Compound | solubility kinetic [µg/mL] |
| --- | --- |
| Cc1ccc(C(=O)Nc2nc3ccc(S(C)(=O)=O)cc3s2)cc1C | < 0.4 |
| O=C(c1cccc([N+](=O)[O-])c1)c1ccc2[nH]c(=O)[nH]c2c1 | 8 (≈ 28.2 µM) |
| COc1ccc(NC(=S)NCc2ccc(Cl)cc2)c(OC)c1 | 28.3 (≈ 84 µM) |
| Cl.O=C(O)CSc1nc(-c2ccccc2)c(-c2ccccc2)[nH]1 | > 52 |
| CC(=O)Nc1ccc(S(=O)(=O)N2CCSC2)cc1 | 29.8 (≈ 104 µM) |
| Cc1ccc(-c2nc(-c3ccncc3)no2)c(Cl)c1 | 0.5 (≈ 1.84 µM) |
| Cc1ccnc(NS(=O)(=O)c2ccc3c(c2)CCO3)c1 | 10.4 (≈ 35.8 µM) |
| COc1ccc(C(=O)C2CCCN(Cc3cccc(C)n3)C2)c(OC)c1 (centres undefined) | > 53.2 |
| NC(=O)c1ccsc1NC(=O)CSc1nnc2ccccn12 | > 50 |
| CC(NC(=O)c1cccs1)c1ccc(Cl)cc1 (centres undefined) | 9.8 (≈ 36.9 µM) |
| O=C(Nc1cc(S(=O)(=O)N2CCOCC2)ccc1N1CCCCC1)c1ccccc1Br | 6.1 (≈ 12 µM) |
| CC(=O)c1c(C)[nH]c(=S)c(C#N)c1-c1ccc(Cl)cc1 | > 45.4 |
| COc1ccc(NC(=O)C2CCOC(C)(C)C2)cc1 (centres undefined) | > 39.5 |
| CCc1nnc(NC(=O)CS(=O)(=O)Cc2ccccc2)s1 | > 48.8 |
| O=Cc1c(NCc2ccccc2Cl)c2ccccc2[nH]c1=O | 17.7 (≈ 56.6 µM) |
| Cn1cc(C(=O)N2CCOCC2)c2ccccc21 | > 36.6 |
| CC(=O)NC(=S)Nc1ccc(NC(=O)c2cccnc2)cc1 | 10.2 (≈ 32.4 µM) |
| CC(=O)c1c(C)[nH]c(C(=O)COC(=O)C2(C)CC2(Cl)Cl)c1C (centres undefined) | 11.9 (≈ 34.4 µM) |
| O=C(COC(=O)CC1CCCC1)Nc1ccccc1[N+](=O)[O-] | 12.1 (≈ 39.5 µM) |
| CC(=O)c1ccc2c(c1)c(C#N)c1ccccc1[n+]2[O-] | 1.7 (≈ 6.48 µM) |

| Compound | solubility kinetic [µg/mL] |
| --- | --- |
| CN(C(=O)CSc1nc2ccccc2c(=O)n1-c1ccccc1F)C1CCS(=O)(=O)C1 (centres undefined) | 16.2 (≈ 35.1 µM) |
| O=C(NCCCN1CCOCC1)C(=O)NCc1ccccc1 | > 45.8 |
| COc1ccc(CN(C)C(=O)c2ccc3c(=O)n4c(nc3c2)CCC4)cc1 | > 54.5 |
| Cc1ccc(CCNC(=O)C2CCCN(S(C)(=O)=O)C2)cc1 (centres undefined) | > 48.7 |
| Cc1cc(C)n2nc(C(=O)OCC(=O)Nc3ccc(C)c(S(=O)(=O)N4CCOCC4)c3)nc2n1 | > 73.3 |
| COc1ccc(C(=O)NCC(=O)NCc2ccncc2)cc1 | > 44.9 |
| CC12CCC(C(=O)NC3CCCCC3)([C@H](Br)C1=O)C2(C)C (some centres undefined) | > 53.4 |
| CC(C)COC(=O)c1ccc(N2C(=O)c3ccccc3C2=O)cc1 | 2.1 (≈ 6.49 µM) |
| COc1ccccc1N1C(=O)C2C3C=CC(CC3)C2C1=O (centres undefined) | 30.7 (≈ 108 µM) |
| COc1cc2c(cc1OC)CN(CC(=O)NC(=O)NC(C)(C)C)CC2 | 45.9 (≈ 131 µM) |
| CCCCCOc1ccccc1C(=O)NCCCCCC(=O)O | > 48.2 |
| CC(=O)NC(=O)c1cnn(-c2ccccc2)c1N | > 36.6 |
| CCOc1ccc(Cc2onc3c2C(=O)CCC3)cc1OCC | 45.4 (≈ 144 µM) |
| Cc1csc(NC(=O)C2CC(=O)N(c3ccc(C)c(C)c3)C2)n1 (centres undefined) | 42.4 (≈ 129 µM) |
| Clc1ccccc1OCCCn1ccnc1 | 26.4 (≈ 112 µM) |
| Cc1cccc(NC(=O)Cn2cnc3c(oc4ccccc43)c2=O)c1 | < 0.2 |
| NS(=O)(=O)c1ccc(F)c(C(=O)O)c1 | > 32.9 |
| Cc1ccc(N(CC(=O)N2CCc3ccccc3C2)S(C)(=O)=O)cc1 | > 53.8 |
| CC(=O)c1cc(C#N)c(N2CCN(c3ccccc3)CC2)nc1C | 0.2 (≈ 0.624 µM) |
